Measured values taken from patent US20100221773A1, “Nucleic Acids Encoding a Functional Mammalin Purinoreceptor, P2X3, Methods of Production and Use Thereof” (priority 2005, published 2010).

Key:
[1] = target: T1, rhesus P2X3 receptor (Macaca mulatta, UniProt A0A1D5QSM7); test: In vitro electrophysiological assay (whole-cell patch clamp, PatchXpress); type: cell-based; settings: for IC50: 100 μM CTP, antagonist preincubation 2 min, whole-cell patch clamp, read-out: IC50, inhibition of CTP-induced currents
Description: (§1) Generation of a Rhesus P2X3 Stable Cell Line—Rhesus P2X3 receptor cDNA was subcloned as a 5′HindIII and 3′XhoI fragment into the expression vector pcDNA5/FRT/TO (Invitrogen). Five micrograms of the rhesus P2X3 expression construct was transfected using Lipofectamine 2000 (Invitrogen) into Flp-in T-Rex—293 cells (Invitrogen) according to the manufacturer's directions. Cells positive for flp-mediated recombination of rhesus P2X3 were selected using 300 μg/ml hygromycin. The stable rhesus P2X3 cell line was propagated in DMEM, 10% FBS, 150 μg/ml hygromycin, 15 μg/ml blasticidin, and 100 units/ml penicillin and 100 μg/ml streptomycin, and maintained at 37° and 95% humidity. Cells were subcultured by treatment with 0.25% trypsin with 0.1% EDTA in HBSS.
In vitro Electrophysiological Assay—Cells expressing rhesus P2X3 receptor were grown to a confluence of 65-85% and induced with 1 μg/ml doxycycline 20 to 32 hours prior to assay. After induction the cells were dissociated with trypsin, centrifuged, and resuspended in bath solution at a cell density of 6×10^6 cells/ml and loaded onto PatchXpress. The bath solution contained 150 mM NaCl, 4 mM KCl, 2 mM CaCl2, 1.2 mM MgCl2, 10 mM HEPES, and 11.1 mM glucose, at pH 7.2. The intracellular solution contained 140 mM K-aspartate, 20 mM NaCl, 5 mM HEPES, 10 mM EGTA, at pH 7.2. Agonist stock solutions were prepared in H2O and diluted in bath solution prior to use. All antagonists were prepared as 10 mM stock solutions in DMSO and diluted in bath solution prior to use. All experiments were performed on cells under the whole-cell patch clamp configuration at room temperature. Up to 16 individual cells could be patch clamped simultaneously on the PatchXpress instrument. A baseline response was established by repeated CTP (100 μM; for 2 sec.) followed by antagonist incubation for 2 min. in the absence of CTP. After antagonist preincubation 100 μM CTP and antagonist were co-administered to determine the inhibitory effect of the antagonist. These steps were then repeated on the same cell with a range of concentrations of the antagonist. A maximum of five concentrations of antagonist were tested on any individual cell. The control P2X3 current amplitude (IP2X3-(control)) was taken as an average of the peak current amplitude from the last two agonist additions prior to incubation with an antagonist. The peak P2X3 current amplitude in the presence of an antagonist (IP2X3-(drug)) was used to calculate the inhibitory effect at each concentration of the antagonist according to the following equation:
% inhibition of P2X3=100*(IP2X3-(control)−IP2X3-(drug))/IP2X3-(control)
Each concentration of an antagonist was tested on at least three independent cells. […]

[2] = target: T1, rhesus P2X3 receptor; test: Intracellular calcium measurement (FLIPR, Fluo-3) to assess antagonist affinity; type: cell-based; settings: for IC50: FLIPR, Flp-in T-Rex-293 cells stably expressing rhesus P2X3, antagonist 10 min before agonist αβ-meATP, read-out: IC50, block of αβ-meATP mediated increase in intracellular calcium
Description: as §1
Intracellular Calcium Measurement to Assess Antagonist Affinity—A fluorescent imaging plate reader (FLIPR; Molecular Devices) was used to monitor intracellular calcium levels using the calcium-chelating dye Fluo-3 (Molecular Probes). Cells expressing the rhesus P2X3 receptor were plated in the presence of 0.5 to 1 μg/ml doxycycline at a density of 30,000 cells/well in 384-well black-walled plates approximately 20 hours before beginning the assay. Cells were washed with HBSS and dye-loaded in HBSS, 2 mM CaCl2, 0.1% BSA, 0.25 mM probenecid, and 4 μM Fluo-3 for 60 min in the dark at room temperature. Prior to compound additions cells were washed with HBSS. Antagonist affinity was determined by the ability of these compounds to inhibit increases of intracellular calcium elicited by the P2X3 agonist αβ-meATP. Ten minutes prior to adding agonist, the antagonist was added and allowed to incubate at room temperature. Following agonist addition fluorescence data was collected at 5 sec intervals and analyzed based on the increase in peak relative fluorescence units (RFU) compared to the basal fluorescence. Antagonist dose-response data expressed as a response ratio (max RFU/min RFU) were analyzed using GraphPad Prism.

IC50 ([1]; FIG. 3)	rhesus P2X3 inward current elicited by CTP in the presence of antagonist ([1]; FIG. 3A, 3 μM PPADS, 100 mM CTP (control) as printed)	blockade of αβ-meATP activated Ca2+ influx ([2]; FIG. 1, cells incubated with PPADS for 10 min prior to agonist, FLIPR traces)	IC50 [2]	IC50 [1]	EC50 ([1]; patch-clamp, rhesus P2X3 stable cell line, FIG. 2, read-out: EC50, inward current evoked by agonist)	SMILES
2200 nM	diminished	dose-dependent blockade	2900 nM	–	–	Cc1nc(N=Nc2ccc(S(=O)(=O)O)cc2S(=O)(=O)O)c(COP(=O)(O)O)c(C=O)c1O [PPADS, pyridoxal-phoshpate-6-azophenyl-2′,4′-disulfonic acid]
–	–	–	1500 nM	382 nM	–	Cc1ccc(C(=O)Nc2ccc(S(=O)(=O)O)c3cc(S(=O)(=O)O)cc(S(=O)(=O)O)c23)cc1NC(=O)c1cccc(NC(=O)Nc2cccc(C(=O)Nc3cc(C(=O)Nc4ccc(S(=O)(=O)O)c5cc(S(=O)(=O)O)cc(S(=O)(=O)O)c45)ccc3C)c2)c1 [suramin]
–	–	–	–	–	1000 nM	Nc1ncnc2c1ncn2[C@@H]1O[C@H](COP(=O)(O)CP(=O)(O)OP(=O)(O)O)[C@@H](O)[C@H]1O [αβ-meATP]
